{
  "source": "BindingDB's records for doi:10.1016/j.bmcl.2016.04.018",
  "about": "(Merck Research Laboratories, 2016)",
  "experiment": "Inhibition of human ERG expressed in HEK293 cells assessed as reduction in S35-MK-0499 binding",
  "data": [
    {"smiles": "O=C(Nc1cccc(Cl)c1)N1CCOc2ccc(-c3ccncc3)cc2C1", "values": [
      {"measurement": "IC50", "value": 8.34, "unit": "µM"}
    ]}
  ]
}
